From patent publication US20050142626A1, “Diagnostic methods for asthma” (priority 1999, published 2005) come the findings set out here.

The nature of data set [1]: Chemical stability of L-tyrosine oxidation products (Peaks I and II) of the EPO-H2O2-Br- system. Conditions: to acid, peroxide, reductants and nucleophilic compounds; prolonged incubation at 37° C. with H2O2.
Data set [2] has as its system eosinophil peroxidase-H2O2—Br− system. Briefly: 3-Bromotyrosine formation in BSA incubated with activated phagocytes (eosinophils). Type of data set: cell-based. The settings on record: BSA with phorbol ester activated cells, plasma levels of bromide. As for the experimental part:
Reactions were initiated by addition of oxidant (H2O2, HOBr, N-bromo or N,N-dibromo amine) and performed in sodium phosphate buffer (pH 7.0) at 37° C. for 60 min. Proteins oxidized in vitro were prepared for analysis by first precipitating and desalting them in a single-phase extraction mixture comprised of H2O:methanol:H2O-saturated diethyl ether (1:3:7, v:v:v) as described in Hazen, S. L., Hsu, F. F., Gaut, J. P., Crowler, J. R. and Heinecke, J. W. “Modification of Proteins and Lipids by Myeloperoxidase-Derived Oxidants” In: Methods of Enzymology, Edited by Lester Packer, Vol. 300, pp. 88-106. Academic Press, Inc., San Diego. 1999, followed by acid hydrolysis in methane sulfonic acid. […]
L-Tyrosine, 3-bromotyrosine and 3,5-dibromotyrosine generated by phagocytes and human tissues were quantified by stable isotope dilution GC/MS in the negative-ion chemical ionization mode. n-Propyl, per heptafluorobutyryl (HFB) derivatives of amino acids were prepared by standard methods and analyzed on a Perkin Elmer TurboMass mass spectrometer equipped with chemical ionization probe. […] 3-Bromotyrosine was monitored as its n-propyl per HFB derivative using two structurally informative fragment ions, m/z 573 (M-HF)^− and m/z 445 (M-CF3CF2CHO)^− and their corresponding isotopically labeled [^13C6] internal standard ions at m/z 579 and 451, respectively. […]

The test system of data set [3] is eosinophil peroxidase. Put plainly: Ring-bromination of L-tyrosine by isolated EPO at physiological levels of halides. Type of data set: biochemical. The settings on record: molar excess in reaction mixtures. As for the experimental part: Reactions were initiated by addition of oxidant (H2O2, HOBr, N-bromo or N,N-dibromo amine) and performed in sodium phosphate buffer (pH 7.0) at 37° C. for 60 min. Proteins oxidized in vitro were prepared for analysis by first precipitating and desalting them in a single-phase extraction mixture comprised of H2O:methanol:H2O-saturated diethyl ether (1:3:7, v:v:v) as described in Hazen, S. L., Hsu, F. F., Gaut, J. P., Crowler, J. R. and Heinecke, J. W. “Modification of Proteins and Lipids by Myeloperoxidase-Derived Oxidants” In: Methods of Enzymology, Edited by Lester Packer, Vol. 300, pp. 88-106. Academic Press, Inc., San Diego. 1999, followed by acid hydrolysis in methane sulfonic acid.
Quantitative determination of 3-bromotyrosine and 3,5-dibromotyrosine production from free L-tyrosine was performed utilizing reverse-phase HPLC with a C18 column (Beckman Ultrasphere, 5 μm resin, 4.6×250 mm) equilibrated with solvent A (0.1% trifluoroacetic acid, pH 2.5). […] 3-Bromotyrosine and 3,5-dibromotyrosine were monitored on a diode array detector and quantified at 280 nm employing a standard curve constructed with authentic synthetic standards.
The ability of isolated EPO and MPO to form 3-bromotyrosine and 3,5-dibromotyrosine in the presence of physiological levels of halides was evaluated. […]

As to `N[C@@H](Cc1cc(Br)c(O)c(Br)c1)C(=O)O` (single isomer, unassigned) [3,5-dibromotyrosine], in data set [1], the “chemical stability of the product” value is “stable”.

Turning to `[N-]=[N+]=[N-].[Na+]` [NaN3], in data set [2], the “effect on 3-bromotyrosine production” value was “inhibited”.

On to `NCCS(=O)(=O)O` [taurine], for which the “effect on ring-bromination by EPO” value in data set [3] is given as “augmented”.

In the case of catalase, the “effect on 3-bromotyrosine production” value in data set [2] is “inhibited”.
